The values that follow come from patent publication US7259266B2, “Benzopyran compounds useful for treating inflammatory conditions” (Pharmacia Corporation, priority 2003, dated 2007).

Where “and” joins values, the source holds several entries; their conditions need not be identical. Equal entries are not always repeated.

The target in experiment [1] is T1, COX-2 (Homo sapiens, UniProt P35354).
T1 construct: A 2.0 kb fragment containing the coding region of either human or murine COX-1 or human or murine COX-2; made in house; host or cells: SF9 insect cells (baculovirus, pVL1393)
T1 sequence (P35354 18-604): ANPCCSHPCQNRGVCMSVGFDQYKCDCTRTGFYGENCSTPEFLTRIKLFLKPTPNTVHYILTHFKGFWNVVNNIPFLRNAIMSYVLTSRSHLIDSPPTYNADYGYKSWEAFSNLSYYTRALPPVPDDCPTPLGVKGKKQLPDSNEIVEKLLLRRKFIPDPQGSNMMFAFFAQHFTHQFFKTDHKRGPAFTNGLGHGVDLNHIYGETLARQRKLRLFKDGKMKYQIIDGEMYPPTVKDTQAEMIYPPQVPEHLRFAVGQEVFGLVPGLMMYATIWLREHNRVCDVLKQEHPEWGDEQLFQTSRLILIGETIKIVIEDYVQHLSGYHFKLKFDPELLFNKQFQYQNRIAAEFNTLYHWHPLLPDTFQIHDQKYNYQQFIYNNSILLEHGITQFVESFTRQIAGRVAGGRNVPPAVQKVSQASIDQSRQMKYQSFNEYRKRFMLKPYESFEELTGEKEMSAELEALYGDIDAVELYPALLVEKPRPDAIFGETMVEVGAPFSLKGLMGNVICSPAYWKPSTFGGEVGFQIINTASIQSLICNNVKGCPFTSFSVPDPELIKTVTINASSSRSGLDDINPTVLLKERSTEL
Kind of experiment: Assay for COX-2 activity (PGE2 formed, ELISA). Conditions: human COX-2, standard assay, read-out: hCox-2 IC50. In kind it is biochemical, human or murine. For orientation: ELISA stands for enzyme-linked immunosorbent assay.
Method: The COX-2 inhibition activity of the compounds of this invention illustrated in the Examples were determined by the following methods.
A 2.0 kb fragment containing the coding region of either human or murine COX-1 or human or murine COX-2 was cloned into a BamHl site of the baculovirus transfer vector pVL1393 (Invitrogen) to generate the baculovirus transfer vectors for COX-1 and COX-2 in a manner similar to the method of D.R. O'Reilly et al (Baculovirus Expression Vectors: A Laboratory Manual (1992)). Recombinant baculoviruses were isolated by transfecting 4 μg of baculovirus transfer vector DNA into SF9 insect cells (2×10^8) along with 200 ng of linearized baculovirus plasmid DNA by the calcium phosphate method. […] Recombinant viruses were purified by three rounds of plaque purification and high titer (10^7-10^8 pfu/mL) stocks of virus were prepared. For large scale production, SF9 insect cells were infected in 10 liter fermentors (0.5×10^6/mL) with the recombinant baculovirus stock such that the multiplicity of infection was 0.1. After 72 hours the cells were centrifuged and the cell pellet homogenized in Tris/Sucrose (50 mM: 25%, pH 8.0) containing 1% 3-[(3-cholamidopropyl)dimethylammonio]-1-propanesulfonate (CHAPS). The homogenate was centrifuged at 10,000×G for 30 minutes, and the resultant supernatant was stored at −80° C. before being assayed for COX activity.
COX activity was assayed as PGE2 formed/lg protein/time using an ELISA to detect the prostaglandin released. CHAPS-solubilized insect cell membranes containing the appropriate COX enzyme were incubated in a potassium phosphate buffer (50 mM, pH 8.0) containing epinephrine, phenol, and heme with the addition of arachidonic acid (10 μM). Compounds were pre-incubated with the enzyme for 10-20 minutes prior to the addition of arachidonic acid. […] The PGE2 formed was measured by standard ELISA technology (Cayman Chemical).

In experiment [2] the target is T1, COX-2. Kind of experiment: Modified assay for COX-2 activity (PGE2 formed, ELISA). The format is biochemical, human or murine. The note with it: human COX-2, replicate tests on separate lines, read-out: hCox-2 Modified IC50.

As usually defined, the IC50 is the concentration that inhibits the measured activity by half. Consider `CCCOc1c(Cl)cc(Cl)c2c1OC(C(F)(F)F)C(C(=O)O)=C2` (stereo not shown) [Example 23f, 5,7-dichloro-8-propoxy-2-(trifluoromethyl)-2H-chromene-3-carboxylic acid], for which the IC50 at COX-2 [1] was > 500000 nM.

Regarding `Nc1c(Cl)cc(Oc2cccc3c2OC(C(F)(F)F)C(C(=O)O)=C3)c(F)c1Cl` (stereo not shown) [Example 25d, 8-(4-amino-3,5-dichloro-2-fuorophenoxy)-2-(trifluoromethyl)-2H-chromene-3-carboxylic acid], the IC50 on COX-2 [1] is > 33300 nM.

As to `O=C(O)C1=Cc2cc(Cl)c(Oc3ccc4c(c3)OCO4)cc2O[C@H]1C(F)(F)F` (single isomer, unassigned) [Example 958a], the half-maximal inhibitory concentration (IC50) on COX-2 [2] was 29.3 nM and ≤ 137 nM; at COX-2 [1] (replicate tests on separate lines) it was 35.8 nM and ≤ 137 nM.
